PubChem BioAssay (NCI)
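Growth conditions: 96-well plates. Treatment: test compound, 48 hours, 5 concentrations. Analysis: linear interpolation between bracketing concentrations; unreached endpoints set to highest concentration. The concentration for 50% growth inhibition is given as GI50. TGI: total growth inhibition.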

How the values were obtained:
Assay in all cases: NCI-60 cell line screen, 48 h
OVCAR-4 ovarian = system: OVCAR-4 ovarian
HT29 colon = system: HT29 colon
A549 NSCLC = system: A549 NSCLC
A498 renal = system: A498 renal
LOX IMVI melanoma = system: LOX IMVI melanoma
MOLT-4 leukemia = system: MOLT-4 leukemia
SF-539 CNS = system: SF-539 CNS
HCT-15 colon = system: HCT-15 colon
K-562 leukemia = system: K-562 leukemia
NCI-H522 lung = system: NCI-H522 lung
SK-MEL-5 melanoma = system: SK-MEL-5 melanoma
M14 melanoma = system: M14 melanoma
NCI-H460 lung = system: NCI-H460 lung
SK-MEL-2 melanoma = system: SK-MEL-2 melanoma
NCI-H23 lung = system: NCI-H23 lung
OVCAR-3 ovarian = system: OVCAR-3 ovarian
EKVX NSCLC = system: EKVX NSCLC
NCI/ADR-RES ovarian = system: NCI/ADR-RES ovarian
RXF 393 renal = system: RXF 393 renal
PC-3 prostate = system: PC-3 prostate
NCI-H226 lung = system: NCI-H226 lung
MCF7 breast = system: MCF7 breast
KM12 colon = system: KM12 colon
BT-549 breast = system: BT-549 breast
UACC-257 melanoma = system: UACC-257 melanoma
HL-60(TB) leukemia = system: HL-60(TB) leukemia
SW-620 colon = system: SW-620 colon
SF-295 CNS = system: SF-295 CNS
SNB-75 CNS = system: SNB-75 CNS
MDA-MB-231 breast = system: MDA-MB-231 breast
SR leukemia = system: SR leukemia
TK-10 renal = system: TK-10 renal
HS 578T breast = system: HS 578T breast
HCC-2998 colon = system: HCC-2998 colon
SK-OV-3 ovarian = system: SK-OV-3 ovarian
SN12C renal = system: SN12C renal
MDA-MB-435 = system: MDA-MB-435
T-47D breast = system: T-47D breast
CAKI-1 renal = system: CAKI-1 renal
COLO 205 colon = system: COLO 205 colon
UACC-62 melanoma = system: UACC-62 melanoma
HOP-62 NSCLC = system: HOP-62 NSCLC
SNB-19 CNS = system: SNB-19 CNS
HCT-116 colon = system: HCT-116 colon
OVCAR-8 ovarian = system: OVCAR-8 ovarian
HOP-92 NSCLC = system: HOP-92 NSCLC
IGROV1 ovarian = system: IGROV1 ovarian
MALME-3M melanoma = system: MALME-3M melanoma
ACHN renal = system: ACHN renal
OVCAR-5 ovarian = system: OVCAR-5 ovarian
RPMI-8226 leukemia = system: RPMI-8226 leukemia
UO-31 renal = system: UO-31 renal
CCRF-CEM leukemia = system: CCRF-CEM leukemia
DU-145 prostate = system: DU-145 prostate
SF-268 CNS = system: SF-268 CNS
U251 CNS = system: U251 CNS
SK-MEL-28 melanoma = system: SK-MEL-28 melanoma
786-0 renal = system: 786-0 renal

## CSc1ccc(/C(=N/N=C(N)N)c2ccc(F)cc2)cc1
OVCAR-4 ovarian
  GI50: 0.982 µM
  TGI: 15.6 µM
HT29 colon
  GI50: 0.35 µM
  TGI: 5.47 µM
A549 NSCLC
  GI50: 0.48 µM
  TGI: 10.6 µM
A498 renal
  GI50: 0.39 µM
  TGI: 2.96 µM
LOX IMVI melanoma
  GI50: 0.324 µM
  TGI: 1.55 µM
MOLT-4 leukemia
  GI50: 0.533 µM
  TGI: 10.9 µM
SF-539 CNS
  GI50: 0.367 µM
  TGI: 1.65 µM
HCT-15 colon
  GI50: 0.341 µM
  TGI: 9.85 µM
K-562 leukemia
  GI50: 0.336 µM
  TGI: 6.52 µM
NCI-H522 lung
  GI50: 0.392 µM
  TGI: 11.7 µM
SK-MEL-5 melanoma
  GI50: 0.393 µM
  TGI: 1.49 µM
M14 melanoma
  GI50: 0.308 µM
  TGI: 1.1 µM
NCI-H460 lung
  GI50: 0.367 µM
  TGI: 3.4 µM
SK-MEL-2 melanoma
  GI50: 2.67 µM
  TGI: 17.5 µM
NCI-H23 lung
  GI50: 0.328 µM
  TGI: 3.87 µM
OVCAR-3 ovarian
  GI50: 0.406 µM
  TGI: 9.68 µM
EKVX NSCLC
  GI50: 0.6 µM
  TGI: 13.3 µM
NCI/ADR-RES ovarian
  GI50: 1.66 µM
  TGI: 7.25 µM
RXF 393 renal
  GI50: 0.189 µM
  TGI: 0.708 µM
PC-3 prostate
  GI50: 0.466 µM
  TGI: 11.4 µM
NCI-H226 lung
  GI50: 1.85 µM
  TGI: 14.7 µM
MCF7 breast
  GI50: 0.358 µM
  TGI: 3.69 µM
KM12 colon
  GI50: 0.423 µM
  TGI: 11.7 µM
BT-549 breast
  GI50: 5.6 µM
  TGI: 17.1 µM
UACC-257 melanoma
  GI50: 1.46 µM
  TGI: 11.2 µM
HL-60(TB) leukemia
  GI50: 0.273 µM
  TGI: 0.873 µM
SW-620 colon
  GI50: 0.457 µM
  TGI: 9.76 µM
SF-295 CNS
  GI50: 0.304 µM
  TGI: 10.5 µM
SNB-75 CNS
  GI50: 0.342 µM
  TGI: 5.56 µM
MDA-MB-231 breast
  GI50: 0.807 µM
  TGI: 10 µM
SR leukemia
  GI50: 0.36 µM
  TGI: 1.8 µM
TK-10 renal
  GI50: 2.92 µM
  TGI: 17.2 µM
HS 578T breast
  GI50: 0.872 µM
  TGI: 10.5 µM
HCC-2998 colon
  GI50: 0.314 µM
  TGI: 1.18 µM
SK-OV-3 ovarian
  GI50: 0.78 µM
  TGI: 15.5 µM
SN12C renal
  GI50: 0.672 µM
  TGI: 10 µM
MDA-MB-435
  GI50: 0.23 µM
  TGI: 0.551 µM
T-47D breast
  GI50: 0.56 µM
  TGI: 11.7 µM
CAKI-1 renal
  GI50: 0.536 µM
  TGI: 4.82 µM
COLO 205 colon
  GI50: 0.415 µM
  TGI: 1.77 µM
UACC-62 melanoma
  GI50: 0.417 µM
  TGI: 7.3 µM
HOP-62 NSCLC
  GI50: 0.755 µM
  TGI: 9.2 µM
SNB-19 CNS
  GI50: 0.424 µM
  TGI: 12.5 µM
HCT-116 colon
  GI50: 0.346 µM
  TGI: 4.58 µM
OVCAR-8 ovarian
  GI50: 1.29 µM
  TGI: 14.9 µM
HOP-92 NSCLC
  GI50: 0.797 µM
  TGI: 6.11 µM
IGROV1 ovarian
  GI50: 0.421 µM
  TGI: 3.47 µM
MALME-3M melanoma
  GI50: 1.01 µM
  TGI: 3.25 µM
ACHN renal
  GI50: 0.724 µM
  TGI: 10.5 µM
OVCAR-5 ovarian
  GI50: 0.651 µM
  TGI: 12.7 µM
RPMI-8226 leukemia
  GI50: 0.468 µM
  TGI: 3.16 µM
UO-31 renal
  GI50: 0.856 µM
  TGI: 4.45 µM
CCRF-CEM leukemia
  GI50: 0.414 µM
  TGI: 15.7 µM
DU-145 prostate
  GI50: 0.415 µM
  TGI: 3.84 µM
SF-268 CNS
  GI50: 0.787 µM
  TGI: 11.6 µM
U251 CNS
  GI50: 0.415 µM
  TGI: 7.13 µM
SK-MEL-28 melanoma
  GI50: 1.41 µM
  TGI: 11.6 µM
786-0 renal
  GI50: 0.802 µM
  TGI: 12.5 µM
